Tests used:
Homo sapiens [1] = species on record: Homo sapiens; assay: Ratio of IC50 for human CB1R F200L mutant to IC50 for human wild type CB1R
Homo sapiens [2] = species on record: Homo sapiens; assay: Ratio of IC50 for human CB1R W279A mutant to IC50 for human wild type CB1R
Homo sapiens [3] = species on record: Homo sapiens; assay: Ratio of IC50 for human CB1R K192L mutant to IC50 for human wild type CB1R
Homo sapiens [4] = species on record: Homo sapiens; assay: Ratio of IC50 for human CB1R S383A mutant to IC50 for human wild type CB1R

Fold change (Homo sapiens [1]): 3
Fold change (Homo sapiens [2]): > 1000
Fold change (Homo sapiens [3]): 17
Fold change (Homo sapiens [4]): < 2
SMILES: Cc1c(C(=O)NN2CCCCC2)nn(-c2ccc(Cl)cc2Cl)c1-c1ccc(Cl)cc1

— ChEMBL document CHEMBL1142413
